Experimental data from article PMC3433420 (PLoS ONE, 2012).
Residues, ends and D or L forms follow the SMILES beside them.

Key:
SH2D1A SH2 domain = target: T1, SH2D1A SH2 domain (Homo sapiens, UniProt O60880); assay: FP saturation binding assay
T1 sequence (O60880 6-104 limits assumed): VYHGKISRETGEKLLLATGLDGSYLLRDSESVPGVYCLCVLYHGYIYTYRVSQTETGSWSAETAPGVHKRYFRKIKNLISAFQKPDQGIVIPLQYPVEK

[1] = target: T2, PTPN11-NC tandem SH2 domains (Homo sapiens, UniProt Q06124); assay: FP saturation binding assay
T2 sequence (Q06124 6-216 limits assumed): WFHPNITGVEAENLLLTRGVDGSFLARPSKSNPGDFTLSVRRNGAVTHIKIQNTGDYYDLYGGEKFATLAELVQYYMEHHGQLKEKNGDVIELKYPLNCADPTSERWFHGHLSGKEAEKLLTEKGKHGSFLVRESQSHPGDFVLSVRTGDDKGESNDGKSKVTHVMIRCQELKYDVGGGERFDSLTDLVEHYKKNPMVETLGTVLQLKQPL

SH2D1B SH2 domain = target: T3, SH2D1B SH2 domain (Homo sapiens, UniProt O14796); assay: FP saturation binding assay
T3 sequence (O14796 5-101 limits assumed): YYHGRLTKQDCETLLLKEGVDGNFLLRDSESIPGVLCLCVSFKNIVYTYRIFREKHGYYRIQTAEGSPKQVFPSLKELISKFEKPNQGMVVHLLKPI

[2] = target: SYK-NC tandem SH2 domains (Homo sapiens, UniProt P43405); assay: FP saturation binding assay
NCK2 SH2 domain = NCK2 SH2 domain (Homo sapiens, UniProt O43639); assay: FP saturation binding assay
Chain of NCK2 SH2 domain (O43639 285-380 limits assumed): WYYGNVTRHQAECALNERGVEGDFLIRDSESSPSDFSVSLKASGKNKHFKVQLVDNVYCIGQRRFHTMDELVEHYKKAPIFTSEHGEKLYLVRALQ

RASA1-N SH2 domain [3] = target: T4, RASA1-N SH2 domain (Homo sapiens, UniProt P20936); assay: FP saturation binding assay
T4 sequence (P20936 181-272 limits assumed): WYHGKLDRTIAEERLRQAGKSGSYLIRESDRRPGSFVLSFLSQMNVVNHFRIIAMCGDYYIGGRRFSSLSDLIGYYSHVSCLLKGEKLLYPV

[4] = target: T5, PLCG1-NC tandem SH2 domains (Homo sapiens, UniProt P19174); assay: FP saturation binding assay; conditions: Protein PLCG1-NC; FP saturation binding, high-confidence ErbB interactions; mean over replicate hits
T5 construct: the tandem protein was included in our analysis with all internal amino acids linking the domains; 6X His; thioredoxin; made in house; host or cells: E. coli BL21(DE3)pLysS
T5 sequence (P19174 550-756 limits assumed): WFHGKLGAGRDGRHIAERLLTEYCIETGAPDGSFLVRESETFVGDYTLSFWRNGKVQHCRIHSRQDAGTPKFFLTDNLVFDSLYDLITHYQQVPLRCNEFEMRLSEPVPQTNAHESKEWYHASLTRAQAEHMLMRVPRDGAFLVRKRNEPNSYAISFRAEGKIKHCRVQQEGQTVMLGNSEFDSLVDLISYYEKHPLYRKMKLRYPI

SHC1-PTB domain = target: T6, SHC1-PTB domain (Homo sapiens, UniProt P29353); assay: FP saturation binding assay
T6 sequence (P29353 156-339 limits assumed): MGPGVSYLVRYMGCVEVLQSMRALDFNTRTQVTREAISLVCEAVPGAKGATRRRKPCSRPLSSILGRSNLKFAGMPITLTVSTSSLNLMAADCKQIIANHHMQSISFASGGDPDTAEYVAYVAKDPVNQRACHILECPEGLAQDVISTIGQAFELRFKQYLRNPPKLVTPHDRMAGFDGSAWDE

YES1 SH2 domain = target: T7, YES1 SH2 domain (Homo sapiens, UniProt P07947); assay: FP saturation binding assay; conditions: high-confidence ErbB interactions
T7 construct: 6X His; thioredoxin; made in house; host or cells: BL21(DE3)pLysS E. coli
T7 sequence (P07947 158-255 limits assumed): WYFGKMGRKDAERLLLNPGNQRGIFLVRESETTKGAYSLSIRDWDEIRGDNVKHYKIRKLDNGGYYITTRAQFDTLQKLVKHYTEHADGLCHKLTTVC
Outline: (§1)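 Rhodamine-labeled phosphopeptides (10 nM final) titrated with SH2 domain protein (0.002–10 µM, 12 points) in 20 mM HEPES, 100 mM KCl, 0.1% Tween-20, 5 mM DTT, pH 7.8; 20 min, room temperature, dark. FP read at 530/555 nm; KD fitted by nonlinear regression after thioredoxin background correction and outlier removal.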

[5] = target: PIK3R2-NC tandem SH2 domains (Homo sapiens, UniProt O00459); assay: FP saturation binding assay
Chain of PIK3R2-NC tandem SH2 domains (O00459 330-716 limits assumed): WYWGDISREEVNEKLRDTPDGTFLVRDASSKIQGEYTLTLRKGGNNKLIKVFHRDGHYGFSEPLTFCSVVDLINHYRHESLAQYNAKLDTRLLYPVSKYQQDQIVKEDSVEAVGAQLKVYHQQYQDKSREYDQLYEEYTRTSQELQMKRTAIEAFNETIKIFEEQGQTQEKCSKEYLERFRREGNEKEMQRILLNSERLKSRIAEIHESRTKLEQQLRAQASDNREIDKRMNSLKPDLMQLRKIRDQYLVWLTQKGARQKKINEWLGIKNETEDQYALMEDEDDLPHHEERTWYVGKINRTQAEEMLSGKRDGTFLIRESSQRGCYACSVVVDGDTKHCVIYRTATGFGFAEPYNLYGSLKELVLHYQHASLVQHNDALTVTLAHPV

RASA1-N SH2 domain [6] = target: T4, RASA1-N SH2 domain; assay: FP competition assay; type: binding; design: 6X His; thioredoxin; made in house; host or cells: E. coli BL21(DE3)pLysS; conditions: RASA1N; labeled peptide ErbB2pY1196; Fig. 3 graph A; read-out: Ki (obs)
Experimental: Unlabeled phosphopeptides were synthesized with some modifications to the previously described protocol. […] Unlabeled competitor peptides were prepared at 11 serial 1∶3 dilutions in assay buffer; one control with no unlabeled competitor peptides was also included with each experimental set. The fluorescent peptide, protein, and unlabeled peptide mixtures were allowed to incubate for a minimum of 20 minutes in 384-well plates and polarization signals were measured using the Analyst GT multimode reader as previously described above. Inhibition curves were constructed by four-parameter log-logistic regression using the “drc” package in R with the parameters for maximum and minimum fluorescence fixed according to Z’ factor positive and negative control values. IC50 values were estimated from these fits under a one-site competition binding model and Ki calculated according to the equation developed by.

GRB7 SH2 domain = GRB7 SH2 domain (Homo sapiens, UniProt Q14451); assay: FP saturation binding assay; conditions: KD for GRB7, FP saturation assay
Chain of GRB7 SH2 domain (Q14451 431-527 limits assumed): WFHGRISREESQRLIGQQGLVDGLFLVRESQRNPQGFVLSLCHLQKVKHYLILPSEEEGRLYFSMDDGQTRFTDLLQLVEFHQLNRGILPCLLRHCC

SRC SH2 domain = target: T8, SRC SH2 domain (Homo sapiens, UniProt P12931); assay: FP saturation binding assay; conditions: protein SRC, high-confidence ErbB interactions, mean of replicate hits
T8 construct: between the c-Src SH2 domain and ErbB1 in our FP assay; 6X His; thioredoxin; made in house; host or cells: E. coli BL21(DE3)pLysS
T8 sequence (P12931 151-248 limits assumed): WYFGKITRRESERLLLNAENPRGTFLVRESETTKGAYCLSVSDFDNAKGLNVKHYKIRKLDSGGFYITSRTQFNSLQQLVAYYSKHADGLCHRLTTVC
Outline: as §1

PIK3R1-N SH2 domain = target: T9, PIK3R1-N SH2 domain (Homo sapiens, UniProt P27986); assay: biochemical; type: binding; conditions: protein PIK3R1-N; high-confidence ErbB interactions; mean of replicate hits
T9 construct: thioredoxin; made in house; host or cells: E. coli BL21(DE3)pLysS
T9 sequence (P27986 333-428 limits assumed): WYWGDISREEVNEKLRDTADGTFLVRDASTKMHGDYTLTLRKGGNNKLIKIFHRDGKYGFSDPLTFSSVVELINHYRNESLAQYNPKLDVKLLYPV

SH2D2A SH2 domain = SH2D2A SH2 domain (Homo sapiens, UniProt Q9NP31); assay: FP saturation binding assay
Chain of SH2D2A SH2 domain (Q9NP31 95-186 limits assumed): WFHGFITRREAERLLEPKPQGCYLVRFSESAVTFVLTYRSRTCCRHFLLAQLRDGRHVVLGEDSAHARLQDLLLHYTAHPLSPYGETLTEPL

GRAP2 SH2 domain = target: T10, GRAP2 SH2 domain (Homo sapiens, UniProt O75791); assay: FP saturation binding assay
T10 sequence (O75791 58-149 limits assumed): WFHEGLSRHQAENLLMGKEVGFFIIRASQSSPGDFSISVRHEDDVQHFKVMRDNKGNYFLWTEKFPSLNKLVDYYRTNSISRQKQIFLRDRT

PIK3R3-N SH2 domain = target: T11, PIK3R3-N SH2 domain (Homo sapiens, UniProt Q92569); assay: FP saturation binding assay; conditions: protein PIK3R3-N; high-confidence ErbB interactions; mean of replicate hits
T11 construct: 6X His; thioredoxin; made in house; host or cells: E. coli BL21(DE3)pLysS
Outline: as §1

[7] = target: T12, PIK3R3-NC tandem SH2 domains (Homo sapiens, UniProt Q92569); assay: FP saturation binding assay; conditions: protein PIK3R3-NC; high-confidence ErbB interactions; mean of replicate hits
T12 construct: the tandem protein was included in our analysis with all internal amino acids linking the domains; 6X His; thioredoxin; made in house; host or cells: E. coli BL21(DE3)pLysS
Outline: as §1

PTK6 SH2 domain = target: T13, PTK6 SH2 domain (Homo sapiens, UniProt Q13882); assay: FP saturation binding assay; conditions: protein PTK6; high-confidence ErbB interactions; mean of replicate hits
T13 construct: from the PTK6 SH2 domain; 6X His; thioredoxin; made in house; host or cells: E. coli BL21(DE3)pLysS
T13 sequence (Q13882 78-170 limits assumed): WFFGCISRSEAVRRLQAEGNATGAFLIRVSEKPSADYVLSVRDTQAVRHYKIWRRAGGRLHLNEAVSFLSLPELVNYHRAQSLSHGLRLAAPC
Outline: as §1

PLCG1-C SH2 domain = target: T14, PLCG1-C SH2 domain (Homo sapiens, UniProt P19174); assay: biochemical; type: binding; conditions: protein PLCG1-C; high-confidence ErbB interactions; mean of replicate hits
T14 construct: The 6X His-tagged SH2 domain proteins used in the assay, PLCG1-C, SHC4, VAV2; thioredoxin; made in house; host or cells: E. coli BL21(DE3)pLysS
T14 sequence (P19174 668-756 limits assumed): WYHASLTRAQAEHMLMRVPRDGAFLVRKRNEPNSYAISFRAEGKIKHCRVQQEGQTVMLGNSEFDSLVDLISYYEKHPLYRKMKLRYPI

## CC[C@H](C)[C@H](NC(=O)[C@H](Cc1c[nH]c2ccccc12)NC(=O)[C@H](CC(C)C)NC(=O)CNC(=O)[C@H](CCCCN)NC(=O)[C@H](Cc1ccc(OP(=O)(O)O)cc1)NC(=O)[C@@H](NC(=O)[C@@H](NC(=O)CNC(=O)[C@@H](N)Cc1ccccc1)[C@@H](C)O)C(C)C)C(=O)N1CCC[C@H]1C(=O)N[C@@H](CCC(=O)O)C(=O)N[C@@H](CC(=O)O)C(=O)O [ErbB1 pY727] (HELM PEPTIDE1{F.G.T.V.[O=C([C@H](Cc1ccc(OP(=O)(O)O)cc1)N[*:1])[*:2]].K.G.L.W.I.P.E.D}$$$$V2.0)
SH2D1A SH2 domain
  Kd: 2710 nM
SH2D1A SH2 domain; FP saturation assay
  KD range of recruitment of SH2D1A (SHD1A [sic]): in the nM KD range
[1]
  Kd: 3150 nM
SH2D1B SH2 domain
  Kd: 240 nM
SH2D1B SH2 domain; FP saturation assay
  KD range of recruitment of SH2D1B: in the nM KD range
[2]
  Kd: 11500 nM

## CC(C)C[C@H](NC(=O)[C@H](Cc1ccc(OP(=O)(O)O)cc1)NC(=O)[C@H](CCC(=O)O)NC(=O)[C@@H]1CCCN1C(=O)[C@H](CC(N)=O)NC(=O)[C@@H](N)CCC(=O)O)C(=O)N[C@H](C(=O)N1CCC[C@H]1C(=O)N[C@@H](CCC(N)=O)C(=O)NCC(=O)NCC(=O)N[C@@H](C)C(=O)N[C@@H](CC(=O)O)C(=O)O)[C@@H](C)O [ErbB2 1196 13-mer]
NCK2 SH2 domain
  Kd: 3720 nM

## CC(C)C[C@H](NC(=O)[C@H](CC(N)=O)NC(=O)[C@H](CC(=O)O)NC(=O)[C@@H](N)Cc1ccccc1)C(=O)N[C@@H](Cc1ccc(OP(=O)(O)O)cc1)C(=O)N[C@@H](Cc1ccc(O)cc1)C(=O)N[C@@H](Cc1c[nH]c2ccccc12)C(=O)N[C@@H](CC(=O)O)C(=O)N[C@@H](CCC(N)=O)C(=O)N[C@@H](CC(=O)O)C(=O)N1CCC[C@H]1C(=O)N1CCC[C@H]1C(=O)N[C@@H](CCC(=O)O)C(=O)N[C@@H](CC(=O)O)C(=O)O [ErbB2 1221 13-mer] (HELM PEPTIDE1{F.D.N.L.[O=C([C@H](Cc1ccc(OP(=O)(O)O)cc1)N[*:1])[*:2]].Y.W.D.Q.D.P.P.E.D}$$$$V2.0)
RASA1-N SH2 domain [3]
  Kd: 1120 nM
[4]
  Kd: 2270 nM
SHC1-PTB domain
  Kd: 1980 nM
YES1 SH2 domain; Protein YES1, FP saturation binding, mean over replicate hits
  Kd: 2410 nM
[5]
  Kd: 11200 nM

## CSCC[C@H](NC(=O)[C@H](Cc1ccc(O)cc1)NC(=O)[C@H](CCC(=O)O)NC(=O)[C@H](Cc1ccc(OP(=O)(O)O)cc1)NC(=O)[C@H](CC(=O)O)NC(=O)[C@H](CCC(=O)O)NC(=O)[C@H](CC(=O)O)NC(=O)[C@@H]1CCCN1)C(=O)N[C@@H](CC(N)=O)C(=O)N[C@@H](CCCNC(=N)N)C(=O)N[C@@H](CCC(N)=O)C(=O)N[C@@H](CCCNC(=N)N)C(=O)N[C@@H](CC(=O)O)C(=O)O [ErbB3 pY1260] (HELM PEPTIDE1{P.D.E.D.[O=C([C@H](Cc1ccc(OP(=O)(O)O)cc1)N[*:1])[*:2]].E.Y.M.N.R.Q.R.D}$$$$V2.0)
RASA1-N SH2 domain [3]; read-out: Ki ( exp FP), competing peptide, RASA1N, Ki expected from FP, NI = no interaction
  Ki: > 20000 nM
RASA1-N SH2 domain [6]
  Ki: 38800 nM
GRB7 SH2 domain
  Kd: ≤ 100 nM

## CC[C@H](C)[C@H](NC(=O)[C@@H](N)CCC(=O)O)C(=O)NCC(=O)N[C@@H](Cc1c[nH]cn1)C(=O)N[C@@H](CO)C(=O)N1CCC[C@H]1C(=O)N1CCC[C@H]1C(=O)N1CCC[C@H]1C(=O)N[C@@H](C)C(=O)N[C@@H](Cc1ccc(OP(=O)(O)O)cc1)C(=O)N[C@H](C(=O)N1CCC[C@H]1C(=O)N[C@@H](CCSC)C(=O)N[C@@H](CO)C(=O)NCC(=O)N[C@@H](CC(N)=O)C(=O)N[C@@H](CCC(N)=O)C(=O)N[C@@H](CC(=O)O)C(=O)O)[C@@H](C)O [ErbB4 1056 18-mer] (HELM PEPTIDE1{E.I.G.H.S.P.P.P.A.[O=C([C@H](Cc1ccc(OP(=O)(O)O)cc1)N[*:1])[*:2]].T.P.M.S.G.N.Q.D}$$$$V2.0)
SRC SH2 domain; FP
  Kd: 9470 nM

## CC(C)C[C@H](NC(=O)[C@H](Cc1ccc(O)cc1)NC(=O)[C@H](CC(C)C)NC(=O)[C@@H]1CCCN1C(=O)[C@H](CCC(=O)O)NC(=O)[C@H](CC(N)=O)NC(=O)[C@@H](NC(=O)[C@H](Cc1ccc(OP(=O)(O)O)cc1)NC(=O)[C@H](CCC(=O)O)NC(=O)[C@H](CC(=O)O)NC(=O)[C@H](CCC(=O)O)NC(=O)[C@H](C)NC(=O)[C@H](CCCCN)NC(=O)[C@@H]1CCCN1C(=O)[C@@H]1CCCN1C(=O)CNC(=O)[C@@H](N)CC(N)=O)C(C)C)C(=O)N[C@@H](CC(=O)O)C(=O)O [ErbB4 1202 18-mer] (HELM PEPTIDE1{N.G.P.P.K.A.E.D.E.[O=C([C@H](Cc1ccc(OP(=O)(O)O)cc1)N[*:1])[*:2]].V.N.E.P.L.Y.L.D}$$$$V2.0)
PIK3R1-N SH2 domain
  Kd: 5390 nM
SH2D2A SH2 domain
  Kd: 6000 nM
GRAP2 SH2 domain
  Kd: 2290 nM
PIK3R3-N SH2 domain
  Kd: 2410 nM
[7]
  Kd: 1210 nM
SRC SH2 domain
  Kd: 2300 nM
PTK6 SH2 domain
  Kd: 2040 nM
YES1 SH2 domain; protein YES1, mean of replicate hits
  Kd: 8400 nM
[5]
  Kd: 1840 nM
PLCG1-C SH2 domain
  Kd: 1920 nM
